Test results from article PMC10458698, “Characterization of the interferences of systemic azole antifungal drugs with adrenal steroid biosynthesis using H295R cells and enzyme activity assays” (Current Research in Toxicology, 2023).

Key:
H295R cells = test: Steroidogenesis assay in forskolin-stimulated H295R cells, UHPLC-MS/MS; assay type: cell-based, human; conditions: 48 h
Experimental: Briefly, 200,000 cells/mL between passages 5 and 10 were seeded in a 24-well plate. After 24 h, the medium was replaced by fresh medium containing reference or test compounds. […] As a time zero control, complete medium was incubated without cells. After 48 h of incubation, the cell culture supernatant was collected and stored at −20 °C until steroid quantification was performed by ultra-high liquid chromatography tandem mass spectrometry (UHPLC-MS/MS). All experiments were performed three times independently in technical duplicates.
Using water, the sample volume was adapted to 1 mL. Samples were extracted using Oasis HLB 3 cc SPE cartridge (30 mg, 30 μm particle size, Waters, Massachusetts, USA). Columns were preconditioned with 1 mL ethyl acetate and water prior to application of samples. After sample loading, columns were washed three times with 1 mL methanol (10% v/v) and water before samples were eluted applying 0.75 mL ethyl acetate twice. Eluates were evaporated to dryness and reconstituted in 50 µL methanol. Samples were applied to a reverse phase column (Waters Acquity UPLC BEH C18, 1.7 μm, 2.1 mm × 150 mm). […] Applied mobile phases consisted of water, acetonitrile and formic acid (95/5/0.1; v/v/v and 5/95/0.1; v/v/v). For data analysis, Hunter software version B.09.00 (Agilent Technologies) was used. Lower limit of detection (LOD), lower limit of quantification (LLOQ), and upper limit of quantification (ULOQ) are shown in Table 1.

11β-HSD2 = tested on: 11β-HSD2; set-up: method as in Beck et al., 2017, Beck et al., 2020a; conditions: ref Beck et al., 2017, Beck et al., 2020a; cited from earlier work
CYP17A1 17,20-lyase = target: T1, CYP17A1 17,20-lyase (Homo sapiens, UniProt P05093); test: CYP17A1 17,20-lyase activity assay, microsomes of transfected COS-1 cells; assay type: biochemical; conditions: for IC50: 17α-hydroxypregnenolone 500 nM, 1 h; for lower inhibitory potency against 17,20-lyase than posaconazole: relative to posaconazole
T1 construct: expressed in transfected cells; host or cells: COS-1 cells, transient transfection, microsomal fraction
T1 sequence (P05093 1-508): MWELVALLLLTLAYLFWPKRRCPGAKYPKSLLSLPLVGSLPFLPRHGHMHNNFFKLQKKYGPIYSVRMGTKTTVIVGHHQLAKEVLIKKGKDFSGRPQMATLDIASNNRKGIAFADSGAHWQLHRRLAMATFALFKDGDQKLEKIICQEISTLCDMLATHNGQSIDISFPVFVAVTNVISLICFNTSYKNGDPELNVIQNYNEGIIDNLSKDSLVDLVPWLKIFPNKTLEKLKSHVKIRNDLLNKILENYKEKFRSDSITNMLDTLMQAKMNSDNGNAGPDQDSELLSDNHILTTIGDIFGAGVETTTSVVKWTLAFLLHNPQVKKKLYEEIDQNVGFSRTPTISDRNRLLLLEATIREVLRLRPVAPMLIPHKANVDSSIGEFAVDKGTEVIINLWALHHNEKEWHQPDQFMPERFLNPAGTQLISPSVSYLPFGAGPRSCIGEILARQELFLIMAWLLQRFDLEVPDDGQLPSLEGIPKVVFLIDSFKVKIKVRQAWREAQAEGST
Experimental: (§1) Microsomes were prepared from COS-1 cells transiently transfected with plasmids for either CYP17A1 and POR for CYP17A1-hydroxylase assay (human CYP17A1 was available in our own plasmid collection after cloning into pcDNA3, POR was ordered from Genescript, Piscataway, USA, clone ID OHu25584C), CYP17A1, POR and cytochrome b5 for CYP17A1 17,20-lyase assay (cytochrome b5 was from Genescript, clone ID OHu09495D), POR and CYP21A2 (Genescript, CYP21A2 clone ID OHu18602D), or 3β-HSD2 (Genescript, clone ID OHu14034D). Transfection was performed using PEI and equal amounts of required plasmids with a total DNA amount of 8 µg per transfection of 3,000,000 cells. After overnight incubation, cells were washed with prewarmed PBS before adding ice-cold PBS. Cells were collected and centrifuged at 600 × g for 4 min at 4 °C, washed with ice cold PBS and centrifuged again. The pellet was resuspended in a resuspension buffer (20 mM Tris, pH 7.5, 50 mM KCl, 2 mM MgCl2, 0.25 M sucrose). Cells were disrupted with 30 S by a glass potter (2 cm^3) as described above. The homogenate was centrifuged for 20 min at 12,000 × g and 4 °C. Microsomes were pelleted by ultracentrifugation at 100,000 × g for 1 h at 4 °C. The pellet was resuspended in reaction buffer and the protein concentration determined using the Pierce Protein BCA kit as described above.
Microsomes, 250 µg/mL, expressing CYP17A1, POR and cytochrome b5 were incubated in reaction buffer for 10 min with 1 mM NADPH and the azole antifungals. The reaction was started by adding 500 nM 17α-hydroxypregnenolone in a total reaction volume of 50 µL. After 1 h of incubation at 37 °C, the reaction was stopped adding 50 µL methanol. Samples were evaporated to dryness, reconstituted in 6 µL methanol, diluted 1:25 in water and the DHEA concentration was quantified using an ELISA kit (DEH3344, Demeditec, Kiel, Germany). Absorbance was measured using a BioTek Citation5 imaging reader.

CYP17A1 17α-hydroxylase = target: T2, CYP17A1 17α-hydroxylase (Homo sapiens, UniProt P05093); test: CYP17A1 17α-hydroxylase activity assay, microsomes of transfected COS-1 cells; assay type: biochemical; conditions: cell-free; for inhibition of CYP17A1 17α-hydroxylase: in words; for IC50: progesterone 500 nM, 10 min, read-out: IC50 CYP17A1 17α-hydroxylase mean
T2 construct: expressed in transfected cells; host or cells: COS-1 cells, transient transfection, microsomal fraction
T2 sequence (P05093 1-508): T1 sequence (P05093 1-508)
Experimental: as §1
Microsomal protein (250 µg/mL) was preincubated with 1 mM NADPH and the compound of interest in reaction buffer for 10 min. The reaction was started by adding progesterone spiked with a radioactive tracer (final activity 0.025 mCi) to a final concentration of 500 nM. After 10 min of incubation at 37 °C the reaction was stopped by adding enzyme substrate and product at a final concentration of 1 mM in methanol, followed by shock-freezing in liquid nitrogen. Steroids were separated by thin layer chromatography on SIL G-25 UV254 TLC plates (Macherey-Nagel, Düren, Germany) using chloroform and ethyl acetate (1:4; v:v). Bands were excised and radiolabeled steroids analyzed by scintillation counting using […] Plus cocktail (Zinsser Analytic, Frankfurt am Main, Germany) and a β-counter (Packard, Connecticut, USA). Relative conversion was calculated based on total counts.

[1] = 30 nM, 10 μM forskolin, relative to forskolin control

Row | Structure (SMILES) | lower level of the CYP11B2 product aldosterone (H295R cells; [1]) [%] | lower levels of the CYP11B1 products cortisol and corticosterone (H295R cells; [1]) | inhibition of cortisol, corticosterone and aldosterone production (H295R cells; 300 nM and higher concentrations) | effect on the steroid profile (H295R cells; forskolin-stimulated, in words) | product/substrate ratio 17α-hydroxyprogesterone/progesterone (apparent CYP17A1 17α-hydroxylase activity) (H295R cells; forskolin-stimulated, in words) | product/substrate ratios corticosterone/11-DOC and cortisol/cortexolone (apparent CYP11B1 activity) (H295R cells; forskolin-stimulated, in words) | IC50 (11β-HSD2) [µM] | IC50 (CYP17A1 17,20-lyase; cell-free) [µM] | inhibition of CYP17A1 17,20-lyase (CYP17A1 17,20-lyase; cell-free, in words) | preference for 17,20-lyase over the 17α-hydroxylase activity (CYP17A1 17,20-lyase; ratio of IC50 values) | inhibition of CYP17A1 17α-hydroxylase (CYP17A1 17α-hydroxylase) | IC50 (CYP17A1 17α-hydroxylase) [µM] | concentrations that block overall steroidogenesis (H295R cells; forskolin-stimulated) [µM] | lower inhibitory potency against 17,20-lyase than posaconazole (CYP17A1 17,20-lyase) [times] | effect on the steroid profile (H295R cells; forskolin-stimulated, in words, listed as Itraconazole)
1 | CC[C@@H]([C@H](C)O)n1ncn(-c2ccc(N3CCN(c4ccc(OC[C@@H]5CO[C@@](Cn6cncn6)(c6ccc(F)cc6F)C5)cc4)CC3)cc2)c1=O [posaconazole, Posaconazole] | ~50 | about 40% | complete inhibition | did not affect progesterone and 11-DOC levels | indicated 17α-hydroxylase inhibition | decreased with increasing concentrations | 0.46 | 0.28 | potently inhibited | four-fold preference | moderately inhibited | 1.12 | – | – | –
2 | C[C@@H](c1nc(-c2ccc(C#N)cc2)cs1)[C@](O)(Cn1cncn1)c1cc(F)ccc1F [isavuconazole] | – | – | – | concentration-dependent decrease in all measured steroids | – | did not indicate an inhibition of CYP11B1 and CYP11B2 | ~10 | 5.71 | – | – | very weakly | > 10 | ≥ 1 | 20 | –
3 | CCC(C)n1ncn(-c2ccc(N3CCN(c4ccc(OCC5COC(Cn6cncn6)(c6ccc(Cl)cc6Cl)O5)cc4)CC3)cc2)c1=O (stereo not shown) [itraconazole] | – | – | – | lowered the levels of all steroids in a concentration-dependent manner | – | less potently | 0.14 | 5.76 | – | – | – | > 10 | ≥ 1 | 20 | inhibited the production of corticosterone and aldosterone and, to a lesser extent, of cortisol in a concentration-dependent manner
